Here are results for one substance from patent US20260275281A1, “COMPOSITIONS AND METHODS FOR DIFFERENTIATING RPE CELLS” (STEMCELL TECHNOLOGIES CANADA INC., priority 2023, published 2026).

This assay concerns H9-derived RPE cells. The note with it: increasing concentrations 10 μM, 25 µM and 50 μM in maturation medium, versus unsupplemented medium.

Description: RPE pigmentation levels of cells at different stages of differentiation, but usually day 49 mature (d) RPE, could be analysed by a melanin content assay. […] A total of 4×10^5 RPE were added per well of a 96 well u bottom plate and centrifuged at 500×g for 3 minutes. Once the supernatant was removed, cells were resuspended in 100 μL of D-PBS and transferred to a 96 well tissue culture plate. RPE were centrifuged at 300×g for 3 minutes and absorbance was measured at 490 nm. Melanin content was calculated relative to the synthetic standard.

For ferric ammonium citrate, the “melanogenesis (brightfield microscopy and melanin content assay)” value is recorded as “increasing levels of melanogenesis”.
